From patent US10390532B2, “Insecticide composition including thiamethoxam and a synergistic agent” (priority 2015, dated 2019)
Read-outs that look alike come from different tables or passages of the source.

Tests used:
Assay type in all cases: cell-based, Periplaneta americana
[1] = test system: cockroach Dorsal Unpaired Median (DUM) neurons; conditions: for origin of the intracellular calcium rise: with caffeine, omega-conotoxin, pirenzepine
[2] = test system: cockroach Dorsal Unpaired Median (DUM) neurons; test: Voltage-clamp thiamethoxam-induced current in DUM neurons after pretreatment with acetylcholine
Experimental: Electrical activity and neonicotinoïd-induced inward currents are recorded using the patch clamp technique in the whole-cell recording configuration under current-clamp and voltage-clamp mode, respectively. Patch-clamp electrodes are pulled from borosilicate glass capillary tubes (GC150T-10) using a P-97 model puller. Patch pipettes have resistances ranging from 1 to 1.2 MΩ when filled with internal pipette solution. The liquid junction potential between extracellular and intracellular solutions is always corrected before the formation of a giga Ohm seal (>3GΩ). Signals are recorded with an Axopatch 200A amplifier. […] Under voltage-clamp conditions, DUM neuron somata are voltage-clamped at a steady state holding potential of −50 mV to measure the effects of thiamethoxam applied alone and after pretreatment with IR3535® (10^−8 M). Experiments are carried out at room temperature.
Acetylcholine at a concentration of 10^−3M has been applied to DUM neurons during one second, three minutes before testing thiamethoxam at 10^−7M, 10^−6M and 10^−5M on DUM neurons under the same protocol as example 3.

[3] = test system: cockroach Dorsal Unpaired Median (DUM) neurons; test: Whole-cell patch-clamp, voltage-clamp: thiamethoxam-induced inward current in DUM neurons; conditions: holding potential -50 mV
Experimental: (§1) Experiments were carried out on cockroach Dorsal Unpaired Median (DUM) neurons. Cockroach neuronal preparations are commonly used as biomedical models for vertebrates and invertebrates and DUM neurons are, furthermore, electrophysiologically and pharmacologically well characterized since most of the biophysical and pharmacological properties of ionic currents and receptors underlying and modulating their spontaneous action potentials have been established by using the well-known patch-clamp technique.
(§2) Adult male cockroaches, Periplaneta americana (see FIG. 1), are taken from our laboratory colonies, which are maintained under standard conditions (29° C., photoperiod of 12 h light/12 h dark). Animals are immobilized dorsal-side up on a dissection dish. The dorsal cuticle, gut and some dorso-longitudinal muscles are removed to allow access to the ventral nerve cord. The abdominal nerve cord and its terminal abdominal ganglion (TAG), carefully dissected under a binocular microscope, are placed in normal saline. Animal care and handling procedures are in accordance with French institutional and national health guidelines. […]
(§3) Electrical activity and neonicotinoïd-induced inward currents are recorded using the patch clamp technique in the whole-cell recording configuration under current-clamp and voltage-clamp mode, respectively. […] Signals are recorded with an Axopatch 200A amplifier. […]

[4] = test system: cockroach Dorsal Unpaired Median (DUM) neurons; test: Whole-cell patch-clamp, current-clamp: DUM neuron spontaneous electrical activity; conditions: 10^-8 M
Experimental: as §1, §2, §3

CCN(CC)C(=O)c1cccc(C)c1 [DEET, N,N-diethyl-3-methylbenzamide]
effect on intracellular calcium concentration ([1]; DEET at concentrations higher than 10^-7 M): an important decrease of the intracellular calcium concentration
ratio of emitted fluorescence (340 nm/380 nm) ([1]; DEET between 3.10-8 M and 3.10-7 M): above 0.6
concentration at which the intracellular calcium elevation reaches a maximum ([1]; DEET, DUM neurons): 10^−7 M
maximum value of ratio of emitted fluorescence (340 nm/380 nm) ([1]; DEET, maximum at 10^-7 M): 0.7

CN1COCN(Cc2cnc(Cl)s2)/C1=N\[N+](=O)[O-] [thiamethoxam]
current amplitude, rank among tested concentrations ([2]; thiamethoxam 10^-6 M after acetylcholine 10^-3 M): lowest value
induced current ([2]; thiamethoxam 10^-7, 10^-6, 10^-5 M after acetylcholine 10^-3 M (1 s, 3 min before)): induces a current
current amplitude, rank among tested concentrations ([2]; thiamethoxam 10^-7 M after acetylcholine 10^-3 M): highest value
induced current ([2]; thiamethoxam alone, no acetylcholine pretreatment): no current has been recorded
mean inward current amplitude relative to thiamethoxam applied alone ([3]; thiamethoxam 10^-6 M after pretreatment with IR3535 10^-8 M): about 6 fold
induced inward current amplitude ([3]; thiamethoxam 10^-6 M alone, n=3-4): induces an inward current with small amplitudes

CCCCN(CCC(=O)OCC)C(C)=O [IR3535®, 3-[N-Butyl-N-acetyl]-aminopropionic acid, ethyl ester]
effect on membrane potential and spontaneous action potential discharge frequency [4]: induces a significant membrane depolarization associated with an increase of the spontaneous action potential discharge frequency
lower concentration which produces a significant elevation of intracellular calcium concentration ([1]; DUM neurons): 10^−8 M
concentration at which the zone I intracellular calcium increase reaches a maximum ([1]; DUM neurons, zone I): 10^−8 M
concentration producing the maximum effect on intracellular calcium (zone III) ([1]; DUM neurons, zone III): 3.10^−5 M
origin of the intracellular calcium rise ([1]; IR3535 at 10^-8 M): results from extracellular calcium through plasma membrane voltage-dependent calcium channels via M1/M3 mAChR sub-type modulation
origin of the intracellular calcium rise ([1]; higher concentrations of IR3535 (10^-5 M)): both extracellular calcium and calcium released from internal stores are involved
